Earlier results on three molecules are cited in patent publication US10945992B1, “Dosage forms of rofecoxib and related methods” (Tremeau Pharmaceuticals, Inc., priority 2019, dated 2021).

The conditions of data set [1]: cited from earlier work; for incidence of gastrointestinal (GI) ulcers visualized at endoscopy compared to certain non-selective NSAIDs: FDA 2005; for risk of serious adverse cardiovascular events compared to placebo: long-term controlled clinical trial / FDA 2005.
In data set [2] the test system is patients with HA. The note with it: six weeks of Part 1; P<0.001; cited from earlier work.

As for `Cc1ccc(-c2cc(C(F)(F)F)nn2-c2ccc(S(N)(=O)=O)cc2)cc1` [celecoxib], in data set [1], the “incidence of gastrointestinal (GI) ulcers visualized at endoscopy compared to certain non-selective NSAIDs” value was “reduction” and the “risk of serious adverse cardiovascular events compared to placebo” value is on record as “increased risk”. As to `Cc1ccc(-c2ncc(Cl)cc2-c2ccc(S(C)(=O)=O)cc2)cn1` [etoricoxib], in data set [2], the “improvement on all endpoints versus placebo” value was “clinically and statistically significant improvement”. For the molecule `Cc1onc(-c2ccccc2)c1-c1ccc(S(N)(=O)=O)cc1` [valdecoxib], in data set [1], the “incidence of gastrointestinal (GI) ulcers visualized at endoscopy compared to certain non-selective NSAIDs” value is on record as “reduction” and the “risk of serious adverse cardiovascular events compared to placebo” value is recorded as “increased risk”.
